Source: patent publication US11141494B2, “Development of neurokinin-1 receptor-binding agent delivery conjugates” (PURDUE RESEARCH FOUNDATION, priority 2014, dated 2021)

Key:
[1] = test system: NKIR-transduced xenografts (HEK 293-NKIR) versus non-transduced xenografts (HEK 293-WT); assay: PET imaging of 64Cu-labeled NK1R ligand conjugate in tumor xenograft mice (ROI activity, % ID/mL); format: in vivo, athymic nude mice; conditions: intravenous
Protocol: A NK-1 receptor-binding radionuclide delivery conjugate was prepared that contained NK1RL, a PEG2 linker, and ^64Cu-labeled chelator (radiochemical purity: 99%) with Specific Activity (SA) of 3.7 MBq/μg. Four NKIR-transduced xenografts (HEK 293-NKIR) were prepared, as well as four non-transduced xenografts (HEK 293-WT) using athymic nude mice. Doses of 140-160 uCi (˜[…]) of ligand per mouse were intravenously administered, and the models were imaged at 1, 4 and 20 hours post-injection using PET. The images were analyzed in a region of interest (ROI) around the tumor xenograft activity, and percentage injected dose per mL (% ID/mL) values were calculated from the mean activity in the ROIs. FIG. 8A is a plot showing ROI activity for the NK1R-transduced and non-transduced xenografts. […] FIG. 8B is a plot showing the ^64Cu—NK1R ligand uptake ratio between the NK1R-transduced and non-transduced xenografts in various areas at 20 hours post-injection.

[2] = in terms of human activity and metabolism; cited from earlier work

SMILES | accumulation in NK1R-transduced versus non-transduced xenografts (ROI activity) ([1]; PET at 1, 4 and 20 hours post-injection, HEK 293-NKIR and HEK 293-WT xenografts) | time post-injection at which the ratio between NK1R-transduced and non-transduced xenografts was highest ([1]; PET imaged at 1, 4 and 20 hours post-injection) | biological half-life [2]
O=C(O)CN1CCN(CC(=O)O)CCN(CC(=O)NCCOCCOCCNC(=O)CN2CCC[C@H](OCc3cc(C(F)(F)F)cc(C(F)(F)F)c3)[C@@H]2c2ccccc2)CC1 [NK1RL-PEG2-NOTA-^64Cu conjugate, metal not drawn] | specifically accumulated in NK1R-transduced xenografts, but not in non-transduced murine model xenografts | 20 h | –
[99Tc] [^99mTc, technetium-99m] | – | – | 1 day
